Several values for one entry are separate records, joined by “and”; a condition that tells them apart may be missing. Identical values can stand only once.
How the values were obtained:
[1] = tested on: endothelium (CD31) of porcine venous graft; test: porcine vein graft model: endothelialization score (CD31 staining); assay type: in vivo; details: for B.Endothelialization Score CD31 Staining, Left IJV Experimental: mean score on 0-5 scale, graft incubated 60 minutes in test solution before implantation, one animal per line; for endothelialization of treated venous graft compared to control contralateral venous graft: in words, based on slightly higher endothelialization scores
Experimental: (§1) 6.4 The following experiments were performed to determine the ability of various compounds to preserve vein grafts before implantation in a porcine vein graft model. Briefly, the vein grafts were excised from the pig, incubated in solutions containing the various test compounds, implanted back into the pig and excised after a set period of days. The excised veins were then examined for a variety of factors to determine the protective effect of the various compounds.
Anti-CD31 antibody: An indirect immunoperoxidase procedure was performed. Slides were treated with Declere antigen retrieval solution for 15 minutes followed by two rinses in phosphate-buffered saline (PBS [0.15M NaCl, pH 7.2]+0.05% Tween 20). The slides were then treated with 3% hydrogen peroxide to block endogenous peroxidase activity. After two PBS (0.15M NaCl, pH 7.2)+0.05% Tween 20 rinses, the slides were incubated for 20 minutes in a nonspecific protein block comprising 1% BSA, 1.5% normal horse serum, and 5% milk in PBS (0.15M NaCl, pH 7.2)+0.05% Tween 20. The slides were then incubated with primary antibody for 2 hours at 37° C. followed by two PBS (0.15M NaCl, pH 7.2)+0.05% Tween 20 rinses. The biotinylated secondary antibody was then added and incubated for 30 minutes. After two rinses in PBS (0.15M NaCl, pH 7.2)+0.05% Tween 20, the slides were treated with ABC reagent for 30 minutes followed by two PBS (0.15M NaCl, pH 7.2)+0.05% Tween 20 rinses. The slides were incubated with stable DAB substrate for 6 minutes, rinsed in tap water, counterstained with hematoxylin, and blued with lithium chloride. Finally, all slides were dehydrated in increasing concentrations of alcohol, cleared with xylene, and mounted for interpretation. PBS (0.15M NaCl, pH 7.2)+0.05% Tween 20+1% BSA served as the diluent for the primary antibody and ABC reagent. The diluent for the secondary antibody also contained 1% milk. All rinses were performed with PBS (0.15M NaCl, pH 7.2) supplemented with 0.05% Tween 20.
For the anti-CD31 antibody, all slides were judged for adequacy of tissue elements and staining and read blind by the Study Pathologist to quantify the degree of endothelialization of each section of venous graft tissue using the following scale: 0=no endothelialization, 1=less than 25% endothelialization, 2=25-50% endothelialization, 3=51-75% endothelialization, 4=greater than 75% endothelialization, 5=complete endothelialization. A mean score among the four venous graft sections for each test group was calculated.
(§2) This study tested the ability of a variety of preservation solutions to retard chronic intimal hyperplasia and protect vein grafts from restenosis and obstruction in a porcine interpositional graft model. The markers of inflammation of interest in this study were CD31 (PECAM-1), CD54 (ICAM-1), and macrophages (L1 or Calprotectin) in formalin-fixed, paraffin-embedded porcine venous graft tissues. Specifically, a porcine internal jugular vein was end to side anastamosed to the ipsilateral carotid artery, following 60 minutes of incubation in heparinized saline (negative control), Phorbol Myristate Acetate (PMA) as positive control, or experimental solutions. In addition to the detection of macrophages with either L1 or Calprotectin antibodies, anti-CD31 was used to detect endothelial cells, and Movat's Trichrome stain, together with biomorphometry was used to measure the percent of intimal expansion. For detection of CD31, an anti-CD31 antibody was applied to formalin-fixed, paraffin-embedded porcine spleen at one dilution (1:50). This dilution of anti-CD-31 antibody had strong to intense staining of splenic endothelium (positive control material). In order to detect CD54, mouse antihuman CD54 antibody was applied at one concentration (50 μg/mL) to ICAM-1/CD54 ultraviolet light (UV) activated resin spot slides. There was strong to intense staining of the ICAM-1/CD54 UV activated resin spot slides with 50 μg/mL of anti-CD54 antibody. […]

[2] = tested on: porcine venous graft (intimal hyperplasia); test: porcine vein graft model: % neointimal expansion (histomorphometry, Movat's stain); assay type: in vivo; details: for C.% Neointimal Expansion Movat's Trichrome [100 * (neointima area/neointima area + lumen area], Left IJV Experimental: graft incubated 60 minutes in test solution before implantation, one animal per line; for % neointimal expansion (% NE) compared to contralateral venous graft and heparinized saline negative control: in words
Experimental: as §1
All slides were also stained with hematoxylin and eosin (H&E) and Movat's Pentachrome stains in preparation for histomorphometry. Calculations based on morphometry measurements were made using Microsoft Excel® software. For histomorphometry, neointimal area, luminal area, and percentage of neointimal expansion (100×[neointimal area/neointimal area+luminal area) was calculated for each venous graft section and the mean for each vessel were calculated.
This study tested the ability of a variety of preservation solutions to retard chronic intimal hyperplasia and protect vein grafts from restenosis and obstruction in a porcine interpositional graft model. The markers of inflammation of interest in this study were CD31 (PECAM-1), CD54 (ICAM-1), and macrophages (L1 or Calprotectin) in formalin-fixed, paraffin-embedded porcine venous graft tissues. Specifically, a porcine internal jugular vein was end to side anastamosed to the ipsilateral carotid artery, following 60 minutes of incubation in heparinized saline (negative control), Phorbol Myristate Acetate (PMA) as positive control, or experimental solutions. In addition to the detection of macrophages with either L1 or Calprotectin antibodies, anti-CD31 was used to detect endothelial cells, and Movat's Trichrome stain, together with biomorphometry was used to measure the percent of intimal expansion. For detection of CD31, an anti-CD31 antibody was applied to formalin-fixed, paraffin-embedded porcine spleen at one dilution (1:50). This dilution of anti-CD-31 antibody had strong to intense staining of splenic endothelium (positive control material). In order to detect CD54, mouse antihuman CD54 antibody was applied at one concentration (50 μg/mL) to ICAM-1/CD54 ultraviolet light (UV) activated resin spot slides. There was strong to intense staining of the ICAM-1/CD54 UV activated resin spot slides with 50 μg/mL of anti-CD54 antibody. The detection of macrophages was performed by the application of one concentration (2 μg/mL) of mouse anti-human macrophages antibody to formalin-fixed, paraffin embedded porcine spleen. There was moderate staining of macrophages with 2 μg/mL of anti-macrophages antibody. […] All slides were also stained with hematoxylin and eosin (H&E) and Movat's Pentachrome stains in preparation for histomorphometry.

[3] = tested on: macrophages on the intima of porcine venous graft; test: porcine vein graft model: macrophages on/in intima (anti-macrophage immunoperoxidase); assay type: in vivo; details: for A.Average Number of Macrophages on/in Intima* (400X objective) MAC-1 Staining, Left IJV Experimental: graft incubated 60 minutes in test solution before implantation, one animal per line
Experimental: as §1
Anti-macrophage antibody: An indirect immunoperoxidase procedure was performed. Slides were treated with Declere antigen retrieval solution for 15 minutes followed by one rinse in phosphate-buffered saline (PBS) ([0.15M NaCl, pH 7.2]+0.05% Tween 20). Endogenous peroxidase activity was quenched by incubation with the peroxidase solution supplied in the Dako EnVision+ kit followed by two rinses in PBS (0.15M NaCl, pH 7.2)+0.05% Tween 20. The slides were then incubated for 20 minutes in a nonspecific protein block solution comprising 1% BSA and 1.5% normal goat serum in PBS (0.15M NaCl, pH 7.2)+0.05% Tween 20 followed by incubation with primary antibody for 1 hour. After two PBS (0.15M NaCl, pH 7.2)+0.05% Tween 20 rinses, the slides were treated with the Dako EnVision+ peroxidase labeled polymer for 30 minutes. The slides were rinsed twice with PBS (0.15M NaCl, pH 7.2)+0.05% Tween 20 and treated with Dako substrate-chromogen solution for 8 minutes. The slides were then rinsed in tap water, counterstained with hematoxylin, and blued with lithium chloride. Finally, the slides were dehydrated in increasing concentrations of alcohol, cleared with xylene, and mounted for interpretation. PBS (0.15M NaCl, pH 7.2)+0.05% Tween 20+1% BSA served as the diluent for all antibodies. All rinses were performed with PBS (0.15M NaCl, pH 7.2) supplemented with 0.05% Tween 20.
For the anti-macrophage antibody, all slides were judged for adequacy of tissue elements and staining and read blind by the Study Pathologist to quantify the number of macrophages on the intima of the porcine venous graft tissues. The quantification was performed by counting at 400× the number of positively stained macrophages in and on the intima of each section of venous graft tissue in 10 fields and then taking the average number of macrophages per field for each section. A mean score among the four venous graft sections for each test group was calculated.
as §2

[4] = tested on: porcine venous graft; test: porcine vein graft model: graft occlusion at explant; assay type: in vivo; set-up: key: SO = substantially occluded; details: graft incubated 60 minutes in test solution before implantation; one animal per line
Experimental: as §1
This study tested the ability of a variety of preservation solutions to retard chronic intimal hyperplasia and protect vein grafts from restenosis and obstruction in a porcine interpositional graft model. The markers of inflammation of interest in this study were CD31 (PECAM-1), CD54 (ICAM-1), and macrophages (L1 or Calprotectin) in formalin-fixed, paraffin-embedded porcine venous graft tissues. Specifically, a porcine internal jugular vein was end to side anastamosed to the ipsilateral carotid artery, following 60 minutes of incubation in heparinized saline (negative control), Phorbol Myristate Acetate (PMA) as positive control, or experimental solutions. In addition to the detection of macrophages with either L1 or Calprotectin antibodies, anti-CD31 was used to detect endothelial cells, and Movat's Trichrome stain, together with biomorphometry was used to measure the percent of intimal expansion. […]

[5] = tested on: MAC-1+ leukocytes adhering to the endothelium of the vein patch; test: en face immunofluorescence: MAC-1+ leukocyte adhesion to vein patch; assay type: in vivo, C57BL/6J mice; details: 2 hours of preservation with db-cAMP vs without additive; 24 hours after operation; P<0.05
[6] = tested on: endothelial cells; details: stated as known; cited from earlier work
[7] = tested on: jugular vein patch graft (neointimal hyperplasia); test: murine autologous arterialized vein patch model: neointimal expansion of vein grafts; assay type: in vivo, C57BL/6J mice; details: vein patch preserved 2 hours at 25° C. in heparinized saline with additive (db-cAMP 2 mmol/L; 8-Br-cAMP 0.1 mmol/L; Rp-cAMPS 0.25 mmol/L), harvested postoperative day 21; mean ±SEM

Compound	B.Endothelialization Score CD31 Staining, Left IJV Experimental [1]	C.% Neointimal Expansion Movat's Trichrome [100 * (neointima area/neointima area + lumen area], Left IJV Experimental [2]	A.Average Number of Macrophages on/in Intima* (400X objective) MAC-1 Staining, Left IJV Experimental [3]	endothelialization of treated venous graft compared to control contralateral venous graft [1]	graft status printed in place of a value (Left IJV Experimental) [4]	% neointimal expansion (% NE) compared to contralateral venous graft and heparinized saline negative control [2]	MAC-1+ cells adhered to the surface of vein patch [5]	db cAMP concentrations that become toxic to endothelial cells [6]	neointimal expansion [7]	macrophage scores of treated venous graft compared to contralateral venous graft ([3]; in words)
Lipopolysaccaride	4.75	77.7%	1.575							
Cc1[nH]c(=O)c(C#N)cc1-c1ccncc1 [Milrinone (PDSIII), Milrinone]	5	70.4%	0	better endothelialization	SO					
CCCCCCCCCCCCCC(=O)O[C@@H]1[C@@H](C)[C@@]2(O)[C@@H](C=C(CO)C[C@]3(O)C(=O)C(C)=C[C@@H]23)[C@@H]2C(C)(C)[C@]12OC(C)=O [PMA, Phorbol Myristate Acetate]	4.5 and 5	78.9% and 78.8%	0 and 3.55			slight increase				
O=C1CCC(N2C(=O)c3ccccc3C2=O)C(=O)N1 (centres unmarked) [Thalidomide]	4.75 and 4.5	78.2% and 80.0%	1.15 and 1.45							
Enbrel					SO					
CCCC(=O)Nc1ncnc2c1ncn2[C@@H]1O[C@@H]2COP(=O)(O)O[C@H]2[C@H]1OC(=O)CCC [db-cAMP, N^6,2′-O-dibutyryl adenosine 3′,5′-cyclic monophosphate]	5	55.6%	0.025	better endothelialization		large and significant increase	markedly decreased	higher than 4 mM	51.0%±4.7%	decreases
Nc1ncnc2c1nc(Br)n2[C@@H]1O[C@@H]2COP(=O)(O)O[C@H]2[C@H]1O [8-Br-cAMP, 8-bromo-adenosine 3′,5′-cyclic monophosphate]									44.3%±5.0%	

Source: patent US20060134073A1, “Compositions and methods for ex vivo preservation of blood vessels for vascular grafts using analogues of cAMP and cGMP” (priority 2004, published 2006)
